In patent publication US20240382483A1, “HETEROCYCLIC EGFR INHIBITORS FOR USE IN THE TREATMENT OF CANCER” (Blueprint Medicines Corporation, priority 2021, published 2024) one finds IC50 data, which are given here for 19 molecules.

For one assay, the target named is T1, EGFR (L858R T790M C797S) (Homo sapiens, UniProt P00533, C797S/L858R/T790M).
T1 construct: purchased SignalChem E10-122VG
Nature of the assay: Biochemical EGFR inhibition assay (Caliper mobility shift), EGFR LRTMCS. Conditions: LRTMCS (PH) IC50 (nM) @ 1 mM ATP (Num), EGFR LRTMCS mutant. In outline:
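Apparent IC50s were derived by plotting percent activity against the log of compound concentration. Activity was measured as phosphopeptide electrophoretically separated from substrate, after reactions at room temperature reached 10% to 20% phosphorylation and were halted with 35 mM EDTA.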

Assay [1] has as its target T2, intracellular phosphorylation of EGFR in NCI-H1975 cell line that harbors the EGFR L858R T790M mutations (Homo sapiens, UniProt P00533, L858R/T790M).
T2 construct: NCI-H1975 cell line that harbors the EGFR L858R T790M mutations (ATCC, CRL-5908); host or cells: NCI-H1975
As to the kind of experiment: NCI-H1975 pEGFR AlphaLISA assay. In kind it is cell-based. The conditions noted are these: NCI-H1975 cells (EGFR L858R T790M), p-EGFR (Tyr1068), 4-5 hours incubation; read-out: Ext pEGFR H1975 GMean IC50 (nM) Protocol: @Pharmaron AlphaLISA (Num). The procedure:
On the next day, the test compounds and DMSO control were added into H1975 cell plate followed by incubation at 37C/5% CO2 for 4-5 hours. […] Then 5 μL of a donor bead mix was added to each well followed by overnight incubation at room temperature in dark. On the next day, the plate was read at a compatible plate reader to obtain pEGFR signal. Percent of pEGFR inhibition was plotted against log concentration of compounds to generate IC50 values.

Where a name gives a salt, the structure may show the parent alone.

T1 sequence (P00533 25-1210 T790M/C797S/L858R): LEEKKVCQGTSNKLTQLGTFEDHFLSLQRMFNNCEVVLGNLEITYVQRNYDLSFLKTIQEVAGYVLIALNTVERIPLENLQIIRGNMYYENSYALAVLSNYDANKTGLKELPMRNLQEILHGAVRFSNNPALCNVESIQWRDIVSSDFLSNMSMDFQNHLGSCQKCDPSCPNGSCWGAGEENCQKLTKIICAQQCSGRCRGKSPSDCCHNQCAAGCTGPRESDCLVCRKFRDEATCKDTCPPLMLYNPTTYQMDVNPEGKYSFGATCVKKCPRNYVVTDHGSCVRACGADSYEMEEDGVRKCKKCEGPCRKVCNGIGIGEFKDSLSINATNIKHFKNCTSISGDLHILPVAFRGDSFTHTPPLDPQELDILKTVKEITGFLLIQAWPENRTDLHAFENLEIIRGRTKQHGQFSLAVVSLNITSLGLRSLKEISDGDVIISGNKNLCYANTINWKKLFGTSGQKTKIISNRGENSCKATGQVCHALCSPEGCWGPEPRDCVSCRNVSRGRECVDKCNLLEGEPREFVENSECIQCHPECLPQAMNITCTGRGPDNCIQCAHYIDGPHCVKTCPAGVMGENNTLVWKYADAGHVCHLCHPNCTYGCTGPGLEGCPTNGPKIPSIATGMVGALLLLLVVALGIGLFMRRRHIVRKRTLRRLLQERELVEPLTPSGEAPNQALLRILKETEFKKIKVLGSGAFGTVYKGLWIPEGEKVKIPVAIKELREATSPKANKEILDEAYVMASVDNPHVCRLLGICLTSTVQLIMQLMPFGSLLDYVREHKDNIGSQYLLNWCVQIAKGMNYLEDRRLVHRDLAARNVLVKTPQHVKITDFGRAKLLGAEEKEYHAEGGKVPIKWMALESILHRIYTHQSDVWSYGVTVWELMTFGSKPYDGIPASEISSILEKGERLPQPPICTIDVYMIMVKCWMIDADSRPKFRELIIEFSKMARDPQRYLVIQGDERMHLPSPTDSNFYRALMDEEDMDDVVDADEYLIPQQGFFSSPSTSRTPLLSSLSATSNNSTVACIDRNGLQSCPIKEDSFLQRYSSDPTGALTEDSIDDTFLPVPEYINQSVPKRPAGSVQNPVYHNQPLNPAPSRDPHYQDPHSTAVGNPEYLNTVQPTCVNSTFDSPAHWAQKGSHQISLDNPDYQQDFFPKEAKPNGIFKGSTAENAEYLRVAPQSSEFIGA
T2 sequence (P00533 25-1210 T790M/L858R): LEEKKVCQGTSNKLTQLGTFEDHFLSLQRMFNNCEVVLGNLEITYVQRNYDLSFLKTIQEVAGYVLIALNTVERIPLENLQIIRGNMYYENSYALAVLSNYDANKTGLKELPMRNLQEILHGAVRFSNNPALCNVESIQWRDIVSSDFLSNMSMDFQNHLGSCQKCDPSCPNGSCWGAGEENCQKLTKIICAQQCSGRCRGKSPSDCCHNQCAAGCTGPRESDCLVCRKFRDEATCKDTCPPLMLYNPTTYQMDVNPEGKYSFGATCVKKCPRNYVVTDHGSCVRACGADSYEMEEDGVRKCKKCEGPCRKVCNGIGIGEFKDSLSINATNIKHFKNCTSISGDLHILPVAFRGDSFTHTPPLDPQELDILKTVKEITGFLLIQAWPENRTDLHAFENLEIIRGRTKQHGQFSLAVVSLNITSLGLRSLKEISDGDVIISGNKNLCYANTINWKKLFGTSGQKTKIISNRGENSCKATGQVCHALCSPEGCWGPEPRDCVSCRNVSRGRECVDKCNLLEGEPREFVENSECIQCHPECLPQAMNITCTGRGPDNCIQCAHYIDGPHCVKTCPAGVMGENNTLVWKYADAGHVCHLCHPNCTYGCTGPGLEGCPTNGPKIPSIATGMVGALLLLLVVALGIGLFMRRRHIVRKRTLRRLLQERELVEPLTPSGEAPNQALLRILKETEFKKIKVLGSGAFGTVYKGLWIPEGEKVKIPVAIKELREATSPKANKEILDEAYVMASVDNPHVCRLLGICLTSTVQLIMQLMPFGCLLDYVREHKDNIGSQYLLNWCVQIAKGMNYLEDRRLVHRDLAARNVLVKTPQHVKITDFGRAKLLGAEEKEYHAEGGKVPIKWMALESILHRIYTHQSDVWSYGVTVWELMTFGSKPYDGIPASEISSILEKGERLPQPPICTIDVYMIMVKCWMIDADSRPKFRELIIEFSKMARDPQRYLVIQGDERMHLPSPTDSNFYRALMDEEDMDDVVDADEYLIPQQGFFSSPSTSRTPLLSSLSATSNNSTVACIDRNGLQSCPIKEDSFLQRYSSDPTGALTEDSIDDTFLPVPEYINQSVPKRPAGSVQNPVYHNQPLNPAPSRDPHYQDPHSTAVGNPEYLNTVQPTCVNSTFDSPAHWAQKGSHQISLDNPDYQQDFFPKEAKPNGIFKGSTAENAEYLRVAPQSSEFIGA

On to `CC(C)c1cnc(N2CC(N=S(C)(C)=O)C2)c2cnc(Nc3ccnc(N4CC[C@@H](O)[C@@](C)(F)C4)n3)cc12` [Example 94, ((1-(6-((2-((3S,4R)-3-fluoro-4-hydroxy-3-methylpiperidin-1-yl)pyrimidin-4-yl)amino)-4-isopropyl-2,7-naphthyridin-1-yl)azetidin-3-yl)imino)dimethyl-l6-sulfanone], for which the figures for the IC50 (at EGFR (L858R T790M C797S); in assay [1]) were less than 15 nM and 20 to 30 nM, respectively.
With `Cc1nnc(-c2ncc(C(C)C)c3cc(Nc4ccnc(N5CC[C@@H](O)[C@@](C)(F)C5)n4)ncc23)o1` [Example 5, (3S,4R)-3-fluoro-1-(4-((5-isopropyl-8-(5-methyl-1,3,4-oxadiazol-2-yl)-2,7-naphthyridin-3-yl)amino)pyrimidin-2-yl)-3-methylpiperidin-4-ol], the IC50 on EGFR (L858R T790M C797S) was less than 15 nM; in assay [1], 10 to 20 nM.
As for `CC(C)c1cnc(N2C[C@H](O)[C@H]2C)c2cnc(Nc3ccnc(N4CC[C@@H](O)C(C)(C)C4)n3)cc12` (single isomer, unassigned) [Example 168, (R)-1-(4-((8-((2R,3S)-3-hydroxy-2-methylazetidin-1-yl)-5-isopropyl-2,7-naphthyridin-3-yl)amino)pyrimidin-2-yl)-3,3-dimethylpiperidin-4-ol or (S)-1-(4-((8-((2R,3S)-3-hydroxy-2-methylazetidin-1-yl)-5-isopropyl-2,7-naphthyridin-3-yl)amino)pyrimidin-2-yl)-3,3-dimethylpiperidin-4-ol], the IC50 at EGFR (L858R T790M C797S) is less than 15 nM; in assay [1], 30 to 50 nM.
Taken in the same sequence, the figures for `CC(C)c1cnc(N2CC[C@@H]2C)c2cnc(Nc3ccnc(N4CC[C@@H](O)[C@@H](F)C4)n3)cc12` (single isomer, unassigned) [Example 159, (3S,4R)-3-fluoro-1-(4-((5-isopropyl-8-((S)-2-methylazetidin-1-yl)-2,7-naphthyridin-3-yl)amino)pyrimidin-2-yl)piperidin-4-ol or (3S,4R)-3-fluoro-1-(4-((5-isopropyl-8-((R)-2-methylazetidin-1-yl)-2,7-naphthyridin-3-yl)amino)pyrimidin-2-yl)piperidin-4-ol] were less than 15 nM and 10 to 20 nM.
As to `CC(C)c1cnc(N2C[C@H](n3ccnn3)[C@H]2C)c2cnc(Nc3ccnc(N4CCC(C)(O)CC4)n3)cc12` [Example 130, 1-(4-((5-isopropyl-8-((2R,3S)-2-methyl-3-(1H-1,2,3-triazol-1-yl)azetidin-1-yl)-2,7-naphthyridin-3-yl)amino)pyrimidin-2-yl)-4-methylpiperidin-4-ol], the values for the IC50 (on EGFR (L858R T790M C797S); in assay [1]) were 15 to 20 nM and 20 to 30 nM, respectively.
For `[2H]C([2H])([2H])O[C@H]1CCN(c2nccc(Nc3cc4c(C(C)C)cnc(N5C[C@H](OCCO)[C@H]5C)c4cn3)n2)C[C@H]1F` [Example 137, 2-(((2R,3S)-1-(6-((2-((3R,4S)-3-fluoro-4-(methoxy-d3)piperidin-1-yl)pyrimidin-4-yl)amino)-4-isopropyl-2,7-naphthyridin-1-yl)-2-methylazetidin-3-yl)oxy)ethan-1-ol], the IC50 on EGFR (L858R T790M C797S) is less than 15 nM; in assay [1] it was less than 10 nM.
Consider `CC(C)c1cnc(N2CC(F)(C(=O)N(C)C)C2)c2cnc(Nc3ccnc(N4CC[C@@H](O)[C@@](C)(F)C4)n3)cc12` [Example 92, 3-fluoro-1-(6-((2-((3S,4R)-3-fluoro-4-hydroxy-3-methylpiperidin-1-yl)pyrimidin-4-yl)amino)-4-isopropyl-2,7-naphthyridin-1-yl)-N,N-dimethylazetidine-3-carboxamide], for which the half-inhibitory concentration (IC50) at EGFR (L858R T790M C797S) was 15 to 20 nM; in assay [1] it was 30 to 50 nM.
Turning to `CC(C)c1cnc(N2CC(CCO)C2)c2cnc(Nc3ccnc(N4CC[C@@H](O)[C@@](C)(F)C4)n3)cc12` [Example 77, (3S,4R)-3-fluoro-1-(4-((8-(3-(2-hydroxyethyl)azetidin-1-yl)-5-isopropyl-2,7-naphthyridin-3-yl)amino)pyrimidin-2-yl)-3-methylpiperidin-4-ol], the figures for the IC50 (on EGFR (L858R T790M C797S); in assay [1]) were 15 to 20 nM and 20 to 30 nM, respectively.
With `CC(C)c1cnc(N2CC3(CCO3)C2)c2cnc(Nc3ccnc(N4CC[C@@H](O)[C@@](C)(F)C4)n3)cc12` [Example 54, (3S,4R)-3-fluoro-1-(4-((5-isopropyl-8-(1-oxa-6-azaspiro[3.3]heptan-6-yl)-2,7-naphthyridin-3-yl)amino)pyrimidin-2-yl)-3-methylpiperidin-4-ol], the IC50 on EGFR (L858R T790M C797S) was 15 to 20 nM; in assay [1] it was 20 to 30 nM.
For `CC(C)c1cnc(N2CC(F)(CO)C2)c2cnc(Nc3ccnc(N4CC[C@@H](O)[C@@](C)(F)C4)n3)cc12` [Example 67, (3S,4R)-3-fluoro-1-(4-((8-(3-fluoro-3-(hydroxymethyl)azetidin-1-yl)-5-isopropyl-2,7-naphthyridin-3-yl)amino)pyrimidin-2-yl)-3-methylpiperidin-4-ol], the IC50 was 15 to 20 nM on EGFR (L858R T790M C797S) and more than 50 nM in assay [1].
`CC(C)c1cnc(N2CC[C@H]2CN(C)C)c2cnc(Nc3ccnc(N4CC[C@@H](O)[C@@](C)(F)C4)n3)cc12` [Example 48, (3S,4R)-1-(4-((8-((S)-2-((dimethylamino)methyl)azetidin-1-yl)-5-isopropyl-2,7-naphthyridin-3-yl)amino)pyrimidin-2-yl)-3-fluoro-3-methylpiperidin-4-ol trifluoroacetate]: the IC50 at EGFR (L858R T790M C797S) is less than 15 nM; in assay [1], 10 to 20 nM.
Consider `CC(C)c1cnc(-c2nc[nH]n2)c2cnc(Nc3ccnc(N4CC[C@@H](O)[C@@](C)(F)C4)n3)cc12` [Example 25, (3S,4R)-3-fluoro-1-(4-((5-isopropyl-8-(1H-1,2,4-triazol-3-yl)-2,7-naphthyridin-3-yl)amino)pyrimidin-2-yl)-3-methylpiperidin-4-ol], for which the IC50 lay in the range of 15 to 20 nM at EGFR (L858R T790M C797S) and 30 to 50 nM in assay [1].
Taken in the same sequence, the figures for `CC(C)c1cnc(N2CC[C@H]2CF)c2cnc(Nc3ccnc(N4CC[C@@H](O)[C@@](C)(F)C4)n3)cc12` [Example 76, (3S,4R)-3-fluoro-1-(4-((8-((S)-2-(fluoromethyl)azetidin-1-yl)-5-isopropyl-2,7-naphthyridin-3-yl)amino)pyrimidin-2-yl)-3-methylpiperidin-4-ol] were less than 15 nM and 10 to 20 nM.
Regarding `C[C@H](CO)c1cnc(N2CC[C@H]2C)c2cnc(Nc3ccnc(N4C[C@@H](F)[C@@H](O)C(C)(C)C4)n3)cc12` (single isomer, unassigned) [Example 188], the IC50 at EGFR (L858R T790M C797S) was less than 15 nM; in assay [1], 20 to 30 nM.
Take `CC(C)c1cnc(N2CCC23CN(C(C)C)C3)c2cnc(Nc3ccnc(N4CC[C@@H](O)[C@@](C)(F)C4)n3)cc12` [Example 193, (3S,4R)-3-fluoro-1-(4-((5-isopropyl-8-(6-isopropyl-1,6-diazaspiro[3.3]heptan-1-yl)-2,7-naphthyridin-3-yl)amino)pyrimidin-2-yl)-3-methylpiperidin-4-ol]: the IC50 on EGFR (L858R T790M C797S) is less than 15 nM; in assay [1], 20 to 30 nM.
Taken in the same sequence, the figures for `CC(C)c1cnc(N2CC[C@H]2[C@@H](C)O)c2cnc(Nc3ccnc(N4CC[C@@H](O)[C@@](C)(F)C4)n3)cc12` (single isomer, unassigned) [Example 65, (3S,4R)-3-fluoro-1-(4-((8-((S)-2-((R)-1-hydroxyethyl)azetidin-1-yl)-5-isopropyl-2,7-naphthyridin-3-yl)amino)pyrimidin-2-yl)-3-methylpiperidin-4-ol or (3S,4R)-3-fluoro-1-(4-((8-((S)-2-((S)-1-hydroxyethyl)azetidin-1-yl)-5-isopropyl-2,7-naphthyridin-3-yl)amino)pyrimidin-2-yl)-3-methylpiperidin-4-ol] were less than 15 nM and 20 to 30 nM.
Regarding `CC(C)c1ccc(N2CC(c3nnco3)C2)c2cnc(Nc3ccnc(N4CC[C@@H](O)[C@@](C)(F)C4)n3)cc12` [Example 111, (3S,4R)-1-(4-((8-(3-(1,3,4-oxadiazol-2-yl)azetidin-1-yl)-5-isopropylisoquinolin-3-yl)amino)pyrimidin-2-yl)-3-fluoro-3-methylpiperidin-4-ol], the IC50 at EGFR (L858R T790M C797S) was less than 15 nM; in assay [1] it was less than 10 nM.
Consider `CC(C)c1cnc(N2CC(n3cncn3)C2)c2cnc(Nc3ccnc(N4CC[C@@H](O)[C@@](C)(F)C4)n3)cc12` [Example 88, (3S,4R)-1-(4-((8-(3-(1H-1,2,4-triazol-1-yl)azetidin-1-yl)-5-isopropyl-2,7-naphthyridin-3-yl)amino)pyrimidin-2-yl)-3-fluoro-3-methylpiperidin-4-ol], for which the IC50 is less than 15 nM on EGFR (L858R T790M C797S) and 30 to 50 nM in assay [1].
In the case of `COC[C@@H](C)c1cnc(N2CC[C@H]2C)c2cnc(Nc3ccnc(N4CC[C@@H](O)[C@@](C)(F)C4)n3)cc12` (single isomer, unassigned) [Example 215, (3S,4R)-3-fluoro-1-(4-((5-((S)-1-methoxypropan-2-yl)-8-((R)-2-methylazetidin-1-yl)-2,7-naphthyridin-3-yl)amino)pyrimidin-2-yl)-3-methylpiperidin-4-ol or (3S,4R)-3-fluoro-1-(4-((5-((R)-1-methoxypropan-2-yl)-8-((R)-2-methylazetidin-1-yl)-2,7-naphthyridin-3-yl)amino)pyrimidin-2-yl)-3-methylpiperidin-4-ol], the IC50 on EGFR (L858R T790M C797S) was less than 15 nM; in assay [1], 30 to 50 nM.
